How the values were obtained:
[1] = Linear oscillatory shear rheology (gelation temperature, storage and loss moduli); conditions: for effect on plateau values of G′ and G″ / mechanical properties and gelation temperature: CPE added separately to Cip-18% [P407-PBP]; for reduction of gelation temperature: CPE added separately to Cip-18% [P407-PBP] (1% SDS, 2% limonene or 0.5% bupivacaine)
S. pneumoniae = conditions: cited from earlier work
[2] = Pharmacokinetics in the OM model: ciprofloxacin in middle ear fluid and plasma; format: in vivo, chinchilla; conditions: animals treated with the standard formulation
[3] = tested on: non-typable H. influenzae (NTHi); conditions: cited from earlier work
[4] = Ex vivo permeation of ciprofloxacin across the tympanic membrane
[5] = 2% limonene added to Cip-18% [P407-PBP]

For `CCCCN1CCCCC1C(=O)Nc1c(C)cccc1C` (centres unmarked) [Bupivacaine], the “effect on plateau values of G′ and G″ / mechanical properties and gelation temperature” value [1] was “minimal effects”.
In the case of `CCCCCCCCCCCCOS(=O)(=O)[O-].[Na+]` [SDS, Sodium dodecyl sulfate], the “effect on plateau values of G′ and G″ / mechanical properties and gelation temperature” value [1] is reported as “did not affect” and the “reduction of gelation temperature” value [1] is reported as ~1.5 °C.
For `O=C(O)c1cn(C2CC2)c2cc(N3CCNCC3)c(F)cc2c1=O` [ciprofloxacin], the “MIC for S. pneumoniae” value (S. pneumoniae) is given as 0.5 to 4 µg/mL, the “minimum inhibitory concentration for S. pneumoniae middle ear infections” value (S. pneumoniae) is given as “about 4 μg/mL” and the “ciprofloxacin in the blood” value [2] is given as “undetectable”. For the same compound, the “MIC for non-typable H. influenzae (NTHi)” value [3] was <0.1 to 0.5 µg/mL, the “minimum inhibitory concentration (MIC) of NTHi” value [3] was 0.1 to 0.5 µg/mL and the “minimum inhibitory concentration for H. influenza middle ear infections” value [3] was “about 4 μg/mL”.
In the case of `C=C(C)[C@H]1CC=C(C)CC1` [limonene], the “decrease of G″” value [1, 5] is reported as 4.1 kPa, the “increase of G′” value [1, 5] is reported as 10.5 kPa and the “reduction of gelation temperature” value [1] is reported as 14 °C. The “concentration-dependent increase in ciprofloxacin transfer” value ([4]; 48 hours, limonene added) was “two-to-three-fold” and the “time at which ciprofloxacin was detected in the receiving buffer” value ([4]; limonene added to ciprofloxacin) was 1 to 2 h.

— patent publication US12053527B2, “Compositions with permeation enhancers for drug delivery” (priority 2015, dated 2024)
